According to patent US10676468B2, “N-(3-heteroarylaryl)-4-arylarylcarboxamides and analogs as hedgehog pathway inhibitors and use thereof” (IMPACT Therapeutics, Inc., priority 2012, dated 2020):
pIC50: −log10 of the molar value. Counter-ions that a name gives are not always drawn.

Key:
Type in all cases: cell-based, mouse
[1] = system: Hedgehog Signaling Pathway; assay: SAG-induced differentiation of C3H10T1/2 cells into osteoblastic cells, intracellular alkaline phosphatase activity; conditions: Mus musculus, C3H 10T1/2, 120 h, 1 μM SAG, 5 days, alkaline phosphatase activity (OD405), read-out: IC50 values of compounds that inhibit Hh pathway
In short: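 Mouse C3H10T1/2 cells were induced with SAG and exposed to compound (10 μM to 1 nM) for 5 days at 37 °C. Cells were lysed in 0.2% Triton, and alkaline phosphatase activity was read as OD405 over 30 min at 37 °C in pH 9.8 substrate buffer. IC50 came from a non-linear fit of background-subtracted OD405 against log concentration.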

[2] = system: Hedgehog Signaling Pathway; assay: SHH-induced differentiation of C3H10T1/2 cells into osteoblastic cells, intracellular alkaline phosphatase activity; conditions: 10 nM SHH-N, 5 days, alkaline phosphatase activity (OD405), read-out: IC50 values of compounds that inhibit Hh pathway
In short: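 Hedgehog pathway inhibition was taken as loss of SHH-driven osteoblastic differentiation. Test compound (10 nM–10 μM) plus SHH-N (10 nM) was applied to C3H10T1/2 cells for 5 days, then lysate phosphatase turnover was measured as the 30-min OD405 change at 37 °C. IC50 was fitted from activity versus log dose.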

[3] = system: Hedgehog Signaling Pathway; assay: Gli-Luc reporter gene cell assay in C3H10T1/2/Gli-Luc cells stimulated with Shh; conditions: 30 nM Shh, luciferase activity (RLU), read-out: IC50 values of compounds that inhibit Hh pathway
From the text: The Application of Reporter Gene Cell Assay for the Determination of the Inhibitory Activity of N-(3-(1H-benzo[d]imidazol-2-yl)-4-chlorophenyl)-2-methyl-4-((2S,6R)-2,6-dimethylmorpholino) benzamide and Analogs on Hedgehog Signaling Pathway
The binding of Sonic hedgehog (Shh) to its receptor Patched 1 initiates numerous intracellular signal transmission, and leads to the nuclear translocation of Gli and the elevated transcription of Gli target genes. When C3H10T1/2 cells are stably transfected with the Gli-Luc plasmids containing the luciferase gene under the control of Gli response element and stimulated with Shh, the expression of luciferase is elevated. Luciferase activity is indicative of the hedgehog signaling pathway activity. Therefore, the inhibitory activity of compounds on hedgehog signaling pathway can be measured using the luciferase activity when the transfected cells are stimulated with Shh.
The day before experiment, C3H10T1/2/Gli-Luc cells in log phase of growth were seeded into 96 well plate at a density of 20000 cells per well. The cells were maintained in DMEM (Hyclone) supplemented with 10% FBS (Hyclone) and incubated at 37° C. with 5% CO2 overnight. The compounds to be examined were diluted into 7 different concentrations by series of dilutions (⅓ and 1/10), and the eighth point of concentration is the DMSO control. Those solutions were diluted 100-fold in the fresh growth medium. The cells were taken out of the incubator and the medium of cultured cells were removed. Then, each well was added in an orderly manner with 80 μL of fresh growth medium, 20 μL of medium pre-dilution of positive compound and compounds to be tested, as well as 100 μL of growth medium containing 30 nM of Shh. The cells are returned to the incubator, and incubated for 24 hours.
Measurement of luciferase activity: After taking the 96 well plate out of the incubator, the supernatants were discarded and the cells were washed twice with PBS. Thereafter, each well was dispensed with 20 μL of lysis buffer (Promega E1531), and the plate was shaken for 30 min at room temperature. Following transferring 5 μL of cell lysate into 384 well plate (Greiner 781074), adding 25 μL of luciferase reaction buffer (Promega E1501) into each well and mixing the plate, the relative light unit (RLU) was immediately captured by VarioSkan Flash.
The data were analyzed with Prism 5 software (GraphPad). The relative light unit (RLU) was plotted against the log concentration of testing compound, and the obtained plot was fitted with non-linear curve fitting equation to calculate IC50 values. The curve fitting equation is Y (RLU)=Bottom+(Top−Bottom)/(1+10^((X−Log IC50))). X is the logarithm of concentration. Y is the measure of relative light unit (RLU).
The calculated IC50 value is a measurement of the inhibitory activity of compound to Hh pathway.

[4] = Mus musculus, C3H 10T1/2, 120 h

Row | pIC50 [1] | pIC50 [2, 4] | pIC50 ([3]; Mus musculus, C3H 10T1/2, 24 h) | pIC50 ([2]; Dihydrochloride) | pIC50 ([3]; 24 hours, Dihydrochloride) | SMILES
1 | 7.80 | 8.07 | 7.92 |  |  | Cc1cc(-c2cncnc2)ccc1C(=O)Nc1ccc(Cl)c(-c2nc3ccccc3[nH]2)c1 [Example 43, N-(3-(1H-benzo[d]imidazol-2-yl)-4-chlorophenyl)-2-methyl-4-(pyrimidin-5-yl)benzamide]
2 | 7.15 | 7.72 | 8.49 |  |  | Cc1cc(N2C[C@@H](C)N(C)[C@@H](C)C2)ccc1C(=O)Nc1ccc(Cl)c(-c2ncc(C3CCC3)[nH]2)c1 [Example 181, N-(3-(5-cyclobutyl-1H-imidazol-2-yl)-4-chlorophenyl)-2-methyl-4-((3S,5R)-3,4,5-trimethylpiperazin-1-yl)benzamide]
3 | 8.19 | 9.80 | 9.82 |  |  | Cc1cc(N2C[C@@H](C)N(C)[C@@H](C)C2)ccc1C(=O)Nc1ccc(Cl)c(-c2ncc(-c3cccs3)[nH]2)c1 [Example 81, N-(3-(5-(thiophen-2-yl)-1H-imidazol-2-yl)-4-chlorophenyl)-2-methyl-4-((3S,5R)-3,4,5-trimethylpiperazin-1-yl)benzamide]
4 | 6.77 | 8.21 | 7.77 |  |  | Cc1cc(N2C[C@@H](C)N(C)[C@@H](C)C2)ccc1C(=O)Nc1ccc(Cl)c(-c2ncc(C3CCCCC3)[nH]2)c1 [Example 185, N-(3-(5-cyclohexyl-1H-imidazol-2-yl)-4-chlorophenyl)-2-methyl-4-((3S,5R)-3,4,5-trimethylpiperazin-1-yl)benzamide]
5 | 6.86 | 8.72 | 8.15 |  |  | Cc1ccc(-c2cnc(-c3cc(NC(=O)c4ccc(-c5ccc(C(F)(F)F)cc5)cc4C)ccc3Cl)[nH]2)cc1 [Example 77, N-(3-(5-p-tolyl-1H-imidazol-2-yl)-4-chlorophenyl)-3-methyl-4′-(trifluoromethyl)biphenyl-4-carboxamide]
6 | 8.09 | 9.38 | 9.52 |  |  | CCN1[C@H](C)CN(c2ccc(C(=O)Nc3ccc(Cl)c(-c4ncc(-c5cccs5)[nH]4)c3)c(Cl)c2)C[C@@H]1C [Example 158, N-(3-(5-(thiophen-2-yl)-1H-imidazol-2-yl)-4-chlorophenyl)-2-chloro-4-((3S,5R)-4-ethyl-3,5-dimethylpiperazin-1-yl)benzamide]
7 |  |  |  | 8.14 | 8.92 | C[C@@H]1CN(c2ccc(C(=O)Nc3ccc(Cl)c(-c4nc5ccc(F)cc5[nH]4)c3)c(Cl)c2)C[C@H](C)N1C [Example 131, N-(3-(6-fluoro-1H-benzo[d]imidazol-2-yl)-4-chlorophenyl)-2-chloro-4-((3S,5R)-3,4,5-trimethylpiperazin-1-yl)benzamide Dihydrochloride]
8 | 7.54 | 7.64 | 8.80 |  |  | Cc1cc(C(=O)Nc2ccc(Cl)c(-c3nc4ccccc4[nH]3)c2)ccc1N1C[C@@H](C)N(C)[C@@H](C)C1 [Example 121, N-(3-(1H-benzo[d]imidazol-2-yl)-4-chlorophenyl)-3-methyl-4-((3S,5R)-3,4,5-trimethylpiperazin-1-yl)benzamide]
9 | 7.10 | 8.26 | 8.02 |  |  | Cc1cc(C(=O)Nc2ccc(Cl)c(-c3nc4ccccc4[nH]3)c2)ccc1-c1ccc(C(F)(F)F)cc1 [Example 14, N-(3-(1H-benzo[d]imidazol-2-yl)-4-chlorophenyl)-2-methyl-4′-(trifluoromethyl)biphenyl-4-carboxamide]
10 | 7.18 | < 5.00 | 8.19 |  |  | CS(=O)(=O)c1ccc(C(=O)Nc2ccc(Cl)c(-c3ncc(-c4cccs4)[nH]3)c2)c(Cl)c1 [Example 160, N-(3-(5-(thiophen-2-yl)-1H-imidazol-2-yl)-4-chlorophenyl)-2-chloro-4-(methylsulfonyl)benzamide]
11 | 7.55 | 9.18 | 9.24 |  |  | C[C@@H]1CN(c2ccc(C(=O)Nc3ccc(Cl)c(-c4nc5ccccc5n4C)c3)c(Cl)c2)C[C@H](C)N1C [Example 110, N-(3-(1-methyl-1H-benzo[d]imidazol-2-yl)-4-chlorophenyl)-2-chloro-4-((3S,5R)-3,4,5-trimethylpiperazin-1-yl)benzamide]
12 | 6.97 | 8.30 | 8.48 |  |  | C[C@@H]1CN(c2ccc(C(=O)Nc3ccc(Cl)c(-c4nc5ccc(Cl)cc5[nH]4)c3)c(Cl)c2)C[C@H](C)N1C [Example 96, N-(3-(6-chloro-1H-benzo[d]imidazol-2-yl)-4-chlorophenyl)-2-chloro-4-((3S,5R)-3,4,5-trimethylpiperazin-1-yl)benzamide]
13 | 7.36 | 8.74 | 8.96 |  |  | Cc1cc(N2C[C@@H](C)N(C)[C@@H](C)C2)ccc1C(=O)Nc1ccc(Cl)c(-c2ncc(-c3ccsc3)[nH]2)c1 [Example 139, N-(3-(5-(thiophen-3-yl)-1H-imidazol-2-yl)-4-chlorophenyl)-2-methyl-4-((3S,5R)-3,4,5-trimethylpiperazin-1-yl)benzamide]
14 | 6.42 | 7.26 | 7.68 |  |  | Cc1cc(C(=O)Nc2cnc(C)c(-c3nc4ccccc4[nH]3)c2)ccc1N1C[C@@H](C)N(C)[C@@H](C)C1 [Example 89, N-(5-(1H-benzo[d]imidazol-2-yl)-6-methylpyridin-3-yl)-3-methyl-4-((3S,5R)-3,4,5-trimethylpiperazin-1-yl)benzamide]
15 | 7.55 | 8.57 | 8.74 |  |  | Cc1ccc(-c2cnc(-c3cc(NC(=O)c4ccc(N5C[C@@H](C)O[C@@H](C)C5)cc4C)ccc3Cl)[nH]2)cc1 [Example 80, N-(3-(5-p-tolyl-1H-imidazol-2-yl)-4-chlorophenyl)-2-methyl-4-((2S,6R)-2,6-dimethylmorpholino)benzamide]
16 | 7.49 | 9.16 | 9.30 |  |  | Cc1cc(N2C[C@@H](C)N(C)[C@@H](C)C2)ccc1C(=O)Nc1ccc(Cl)c(-c2nc3ccccc3[nH]2)c1 [Example 93, N-(3-(1H-benzo[d]imidazol-2-yl)-4-chlorophenyl)-2-methyl-4-((3S,5R)-3,4,5-trimethylpiperazin-1-yl)benzamide]
17 | 6.59 | 7.89 | 8.29 |  |  | C[C@@H]1CN(c2ccc(C(=O)Nc3ccc(Cl)c(-c4nc5ccccc5[nH]4)c3)cc2)C[C@H](C)N1C [Example 118, N-(3-(1H-benzo[d]imidazol-2-yl)-4-chlorophenyl)-4-((3S,5R)-3,4,5-trimethylpiperazin-1-yl)benzamide]
18 | 7.17 | 8.68 | 8.85 |  |  | Cc1nc(N2C[C@@H](C)N(C)[C@@H](C)C2)ccc1C(=O)Nc1ccc(Cl)c(-c2nc3ccccc3[nH]2)c1 [Example 116, N-(3-(1H-benzo[d]imidazol-2-yl)-4-chlorophenyl)-2-methyl-6-((3S,5R)-3,4,5-trimethylpiperazin-1-yl)nicotinamide]
19 | 7.22 | 8.28 | 8.28 |  |  | C[C@@H]1CN(c2ccc(C(=O)Nc3cnc(Cl)c(-c4nc5ccccc5[nH]4)c3)c(Cl)c2)C[C@H](C)O1 [Example 128, N-(5-(1H-benzo[d]imidazol-2-yl)-6-chloropyridin-3-yl)-2-chloro-4-((2S,6R)-2,6-dimethylmorpholino)benzamide]
